In patent publication US11331364B2, “Use for JNK inhibitor molecules for treatment of various diseases” (Xigen Inflammation Ltd., priority 2014, dated 2022):
Square brackets hold non-standard residues; d marks the D form. Peptide text beside a SMILES is read from it.

Target: T1, hJNK1 (Homo sapiens, UniProt P45983)
T1 construct: His; purchased Upstate 14-327
Test: AlphaScreen assay, inhibition of JNK1 phosphorylation of c-Jun substrate
Type: biochemical
Conditions: in comparison to L-TAT-IB1; FIG. 4 (JNK1, JNK2, JNK3 AlphaScreen)
Procedure: In the following a standard operating procedure will be set forth describing how the Inhibitory efficacy of JNK inhibitors according to the present invention was measured. The method allows to measure in vitro, in a non radioactive standardized assay, the ability of a candidate compound to decrease the phosphorylation of the c-Jun specific substrate by JNK. Moreover, it will be illustrated how to determine the inhibitory effect (IC50) and the Ki of a chosen compound for JNK. […] And a person skilled in the art will certainly understand how to adapt the below methods for his specific purposes and needs.
AlphaScreen Reagent and Plate: • His-JNK1 (ref 14-327, Upstate, 10 μg in 100 μl: concentration: 2.2 μM) 5 nM final • His-JNK2 (ref 14-329, Upstate, 10 μg in 100 μl: concentration: 2 μM) 5 nM final • His-JNK3 (ref 14-501, Upstate, 10 μg in 100 μl: concentration: 1.88 μM) 5 nM final • Anti-Phospho-cJun (ref 06-828, Upstate, lot DAM1503356, concentration: 44.5 μM) 10 nM final • Biotin-cJun (29-67): • sequence: Biotin—[…] […]
The bioluminescent energy transfer was read on the Fusion Alpha Plate reader (Perkin Elmer). […]

T1 sequence (P45983 1-384 isoform P45983-2): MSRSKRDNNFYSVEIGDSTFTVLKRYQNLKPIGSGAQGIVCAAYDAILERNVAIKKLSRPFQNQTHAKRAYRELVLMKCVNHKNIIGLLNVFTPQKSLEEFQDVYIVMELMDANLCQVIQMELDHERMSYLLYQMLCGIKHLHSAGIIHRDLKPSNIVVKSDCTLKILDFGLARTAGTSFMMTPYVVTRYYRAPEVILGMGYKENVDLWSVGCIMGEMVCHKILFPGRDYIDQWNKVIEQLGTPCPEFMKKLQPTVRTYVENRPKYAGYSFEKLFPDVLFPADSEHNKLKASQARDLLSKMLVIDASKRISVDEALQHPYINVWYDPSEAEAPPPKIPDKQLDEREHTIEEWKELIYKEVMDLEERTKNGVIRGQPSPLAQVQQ

CC(C)C[C@@H](NC(=O)[C@@H](Cc1ccccc1)NC(=O)[C@H]1CCCN1C(=O)[C@@H](CCC(N)=O)NC(=O)[C@H](NC(=O)[C@H]1CCCN1C(=O)[C@@H](CCCNC(=N)N)NC(=O)[C@@H](CO)NC(=O)[C@@H](CCC(N)=O)NC(=O)[C@H](N)CC(=O)O)C(C)C)C(=O)N[C@H](CC(N)=O)C(=O)N[C@H](CC(C)C)C(=O)N[C@@H](C(=O)N[C@@H](C(=O)N1CCC[C@@H]1C(=O)N[C@H](CCCNC(=N)N)C(=O)N[C@H](CCCCN)C(=O)N1CCC[C@@H]1C(=O)N[C@H](CCCNC(=N)N)C(=O)N1CCC[C@@H]1C(=O)N1CCC[C@@H]1C(=O)N[C@H](CCCNC(=N)N)C(=O)N[C@H](CCCNC(=N)N)C(=O)N[C@H](CCCNC(=N)N)C(=O)N[C@H](CCC(N)=O)C(=O)N[C@H](CCCNC(=N)N)C(=O)N[C@H](CCCNC(=N)N)C(=O)N[C@H](CCCCN)C(=O)N[C@H](CCCCN)C(=O)N[C@H](CCCNC(=N)N)C(=O)NCC(N)=O)[C@H](C)O)[C@H](C)O [SEQ ID NO: 197, dqsrpvqpflnlttprkprpprrrqrrkkrg, reference compound] (H-[dD][dQ][dS][dR][dP][dV][dQ][dP][dF][dL][dN][dL][dT][dT][dP][dR][dK][dP][dR][dP][dP][dR][dR][dR][dQ][dR][dR][dK][dK][dR]G-NH2)
inhibitory capacity: significant decrease in inhibitory capacity
